According to US20230203056A1, “HETEROCYCLIC COMPOUNDS” (Hoffmann-La Roche Inc., priority 2020, published 2023):

Molecular target: T1, MAGL (Homo sapiens, UniProt Q99685)
T1 sequence (Q99685 1-303): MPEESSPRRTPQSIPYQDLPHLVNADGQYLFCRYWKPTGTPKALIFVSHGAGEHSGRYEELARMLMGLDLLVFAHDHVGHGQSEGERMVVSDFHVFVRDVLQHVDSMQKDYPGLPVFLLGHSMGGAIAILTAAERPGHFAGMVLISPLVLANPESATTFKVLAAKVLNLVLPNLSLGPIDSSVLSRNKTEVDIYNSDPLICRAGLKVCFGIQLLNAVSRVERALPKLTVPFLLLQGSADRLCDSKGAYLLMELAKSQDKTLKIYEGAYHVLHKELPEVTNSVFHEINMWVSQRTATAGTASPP
Assay: 2-AG assay: MAGL inhibitory activity, hydrolysis of 2-arachidonoylglycerol to arachidonic acid followed by mass spectrometry
Format: biochemical
Conditions: 50 pM MAGL, 8 μM 2-arachidonoylglycerol, 15 min preincubation, 30 min incubation at RT
Procedure: Compounds were profiled for MAGL inhibitory activity by determining the enzymatic activity by following the hydrolysis of the natural substrate 2-arachidonoylglycerol resulting in arachidonic acid, which can be followed by mass spectrometry. This assay is hereinafter abbreviated “2-AG assay”.
The 2-AG assay was carried out in 384 well assay plates (PP, Greiner Cat #784201) in a total volume of 20 μL. Compound dilutions were made in 100% DMSO (VWR Chemicals 23500.297) in a polypropylene plate in 3-fold dilution steps to give a final concentration range in the assay from 12.5 μM to 0.8 pM. 0.25 μL compound dilutions (100% DMSO) were added to 9 μL MAGL in assay buffer (50 mM TRIS (GIBCO, 15567-027), 1 mM EDTA (Fluka, 03690-100 mL), 0.01% (v/v) Tween. After shaking, the plate was incubated for 15 min at RT. To start the reaction, 10 μL 2-arachidonoylglycerol in assay buffer was added. The final concentrations in the assay was 50 pM MAGL and 8 μM 2-arachidonoylglyerol. After shaking and 30 min incubation at RT, the reaction was quenched by the addition of 40 μL of acetonitrile containing 4 μM of d8-arachidonic acid. The amount of arachidonic acid was traced by an online SPE system (Agilent Rapidfire) coupled to a triple quadrupole mass spectrometer (Agilent 6460). A C18 SPE cartridge (G9205A) was used in an acetonitrile/water liquid setup. The mass spectrometer was operated in negative electrospray mode following the mass transitions 303.1→259.1 for arachidonic acid and 311.1→267.0 for d8-arachidonic acid. The activity of the compounds was calculated based on the ratio of intensities [arachidonic acid/d8-arachidonic acid].

| Compound | IC50 [nM] |
| --- | --- |
| O=C(N1CC(OCc2ccc(C(F)(F)F)cc2F)C1)N1C[C@@H]2CCc3cn[nH]c3[C@@H]2C1 (racemic) [Example 1, [3-[[2-Fluoro-4-(trifluoromethyl)phenyl]methoxy]azetidin-1-yl]-[rac-(5aR,8aS)-4,5,5a,6,8,8a-hexahydro-1H-pyrrolo[3,4-g]indazol-7-yl]methanone] | 8 |
| O=C(N1CC(c2ccc(C3(C(F)(F)F)CC3)cc2)C1)N1C[C@H]2COc3cn[nH]c3[C@H]2C1 [Example 4, (+)- or (−)-[(1R,9S)-7-Oxa-3,4,11-triazatricyclo[7.3.0.0^2,6]dodeca-2(6),4-dien-11-yl]-[3-[4-[1-(trifluoromethyl)cyclopropyl]phenyl]azetidin-1-yl]methanone] | 917 |
| O=C(N1CC(OCc2ccc(C(F)(F)F)cc2F)C1)N1C[C@@H]2COc3cn[nH]c3[C@@H]2C1 (racemic) [Example 2, [3-[[2-Fluoro-4-(trifluoromethyl)phenyl]methoxy]azetidin-1-yl]-[rac-(1S,9R)-7-oxa-3,4,11-triazatricyclo[7.3.0.0^2,6]dodeca-2(6),4-dien-1l-yl]methanone] | 67 |
| O=C(N1CC(c2ccc(C3(C(F)(F)F)CC3)cc2)C1)N1C[C@@H]2COc3cn[nH]c3[C@@H]2C1 [Example 3, (−)- or (+)-[(1S,9R)-7-Oxa-3,4,11-triazatricyclo[7.3.0.0^2,6]dodeca-2(6),4-dien-11-yl]-[3-[4-[1-(trifluoromethyl)cyclopropyl]phenyl]azetidin-1-yl]methanone] | 13 |
| O=C(N1C[C@@H]2COc3cn[nH]c3[C@@H]2C1)N1CC2(CC(Cc3ccc(F)cc3F)C2)C1 (single isomer, unassigned) [Example 5, (−)- or (+)-[6-[(2,4-Difluorophenyl)methyl]-2-azaspiro[3.3]heptan-2-yl]-[(1S,9R)-7-oxa-3,4,11-triazatricyclo[7.3.0.0^2,6]dodeca-2(6),4-dien-1l-yl]methanone] | 488 |

Continued, values first:

| IC50 [nM] | Compound |
| --- | --- |
| 9 | O=C(N1C[C@H]2COc3cn[nH]c3[C@H]2C1)N1CC2(CC(Cc3ccc(F)cc3F)C2)C1 (single isomer, unassigned) [Example 6, (+)- or (−)-[6-[(2,4-Difluorophenyl)methyl]-2-azaspiro[3.3]heptan-2-yl]-[(1R,9S)-7-oxa-3,4,11-triazatricyclo[7.3.0.0^2,6]dodeca-2(6),4-dien-11-yl]methanone] |
| 1220 | O=C(N1CC(OCc2ccc(C(F)(F)F)cc2F)C1)N1C[C@@H]2c3[nH]nnc3CO[C@@H]2C1 (single isomer, unassigned) [Example 10, (+)- or (−)-[3-[[2-Fluoro-4-(trifluoromethyl)phenyl]methoxy]azetidin-1-yl]-[(1R,9S)-8-oxa-3,4,5,11-tetrazatricyclo[7.3.0.02,6]dodeca-2(6),4-dien-1l-yl]methanone] |
| 2700 | O=C(N1CC(OCc2ccc(C(F)(F)F)cc2F)C1)N1C[C@@H]2OCc3nn[nH]c3[C@@H]2C1 (single isomer, unassigned) [Example 9, (−)- or (+)-[3-[[2-Fluoro-4-(trifluoromethyl)phenyl]methoxy]azetidin-1-yl]-[(1S,9R)-8-oxa-3,4,5,11-tetrazatricyclo[7.3.0.02,6]dodeca-2(6),4-dien-11-yl]methanone] |
| 50 | O=C(N1CC(OCc2ccc(C(F)(F)F)cc2F)C1)N1C[C@@H]2CCc3nn[nH]c3[C@@H]2C1 (single isomer, unassigned) [Example 7, (−)- or (+)-[3-[[2-Fluoro-4-(trifluoromethyl)phenyl]methoxy]azetidin-1-yl]-[(5aR,8aS)-4,5,5a,6,8,8a-hexahydro-1H-pyrrolo[3,4-e]benzotriazol-7-yl]methanone] |
| 523 | O=C(N1CC(OCc2ccc(C(F)(F)F)cc2F)C1)N1C[C@H]2CCc3nn[nH]c3[C@H]2C1 (single isomer, unassigned) [Example 8, (+)- or (−)-[3-[[2-Fluoro-4-(trifluoromethyl)phenyl]methoxy]azetidin-1-yl]-[(5aS,8aR)-4,5,5a,6,8,8a-hexahydro-1H-pyrrolo[3,4-e]benzotriazol-7-yl]methanone] |
